Test results as given in patent US12391737B2, “Soluble NPY2 receptor agonists” (Boehringer Ingelheim International GmbH, priority 2020, dated 2025).
Where two headings read alike, the source gives them in different places.

How the values were obtained:
[1] = biological target: T1, Human Neuropeptide Y2 Receptor (Homo sapiens, UniProt P49146); experiment: Radioligand binding competition assay (RLB)
T1 construct: purchased CHEMICON HTS066M
T1 sequence (P49146 1-381): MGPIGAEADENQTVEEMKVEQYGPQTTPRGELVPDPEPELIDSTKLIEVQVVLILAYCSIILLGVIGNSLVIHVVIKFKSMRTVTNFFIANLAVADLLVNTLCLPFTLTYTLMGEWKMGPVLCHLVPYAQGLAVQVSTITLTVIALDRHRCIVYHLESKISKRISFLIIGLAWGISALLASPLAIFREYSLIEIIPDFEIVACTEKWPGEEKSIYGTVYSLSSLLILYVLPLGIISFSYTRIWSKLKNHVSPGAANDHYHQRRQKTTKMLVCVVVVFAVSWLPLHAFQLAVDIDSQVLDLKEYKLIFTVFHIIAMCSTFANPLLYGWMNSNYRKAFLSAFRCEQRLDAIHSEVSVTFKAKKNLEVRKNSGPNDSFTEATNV
In short: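 Filtration competition binding on membranes from cells expressing the receptor, 0.5 μg protein/well, in 50 mM HEPES, 5 mM MgCl2, 1 mM CaCl2, pH 7.4, with 0.2% ovalbumin. Incubation ran 2 h at room temperature, followed by GF/C filtration and scintillation counting. IC50 came from nonlinear sigmoidal fits.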

[2] = biological target: T2, human NPY1 receptor (hY1R) (Homo sapiens, UniProt P25929); experiment: HTRF cAMP Gi assay, hY1R; format: cell-based; conditions: CHO-K1 cells
T2 construct: expressed in transfected cells; host or cells: CHO-K1
T2 sequence (P25929 1-384): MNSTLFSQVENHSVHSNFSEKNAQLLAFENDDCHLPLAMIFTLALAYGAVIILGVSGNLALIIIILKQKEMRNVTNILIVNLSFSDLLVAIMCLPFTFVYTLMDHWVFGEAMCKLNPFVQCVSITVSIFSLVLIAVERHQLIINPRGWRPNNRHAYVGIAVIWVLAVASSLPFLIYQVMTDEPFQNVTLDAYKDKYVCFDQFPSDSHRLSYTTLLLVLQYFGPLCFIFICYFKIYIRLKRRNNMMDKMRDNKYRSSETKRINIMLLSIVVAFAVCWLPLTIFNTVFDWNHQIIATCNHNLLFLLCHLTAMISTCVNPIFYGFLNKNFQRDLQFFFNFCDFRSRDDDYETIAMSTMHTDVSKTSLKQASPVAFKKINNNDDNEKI

[3] = biological target: T3, human NPY4 receptor (hY4R) (Homo sapiens, UniProt P50391); experiment: HTRF cAMP Gi assay, hY4R; format: cell-based; conditions: CHO-K1 cells
T3 construct: expressed in transfected cells; host or cells: CHO-K1

Solubility determination = conditions: for Sol6: pH 6; for Sol7: pH 7
In short: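 First, TFA-salt peptide was added to 0.1 M sodium diphosphate (pH 6.4 or 7.0) to 10 mg/ml and shaken 2 h at room temperature. Next, insoluble material was filtered off. Finally, filtrate and control, each 1 mg/ml in 50% acetonitrile, were compared by reversed-phase chromatography.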

[4] = biological target: T4, human NPY5 receptor (hY5R) (Homo sapiens, UniProt Q15761); experiment: HTRF cAMP Gi assay, hY5R
T4 sequence (Q15761 1-445): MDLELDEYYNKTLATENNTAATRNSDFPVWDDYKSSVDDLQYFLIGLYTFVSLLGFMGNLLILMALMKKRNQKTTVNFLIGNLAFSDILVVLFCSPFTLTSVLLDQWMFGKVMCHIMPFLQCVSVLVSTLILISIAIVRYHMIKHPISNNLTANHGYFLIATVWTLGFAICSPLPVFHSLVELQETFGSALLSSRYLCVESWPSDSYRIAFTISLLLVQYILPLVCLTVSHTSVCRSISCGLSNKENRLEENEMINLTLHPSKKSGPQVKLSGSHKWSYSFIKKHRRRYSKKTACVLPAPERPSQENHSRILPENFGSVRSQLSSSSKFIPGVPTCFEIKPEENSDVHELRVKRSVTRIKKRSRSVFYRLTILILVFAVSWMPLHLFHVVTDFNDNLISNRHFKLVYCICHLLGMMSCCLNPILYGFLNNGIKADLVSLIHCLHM

[5] = Table 3, 125I-PYY(1-36) competition, read-out: Ki

T3 sequence (P50391 whole entry): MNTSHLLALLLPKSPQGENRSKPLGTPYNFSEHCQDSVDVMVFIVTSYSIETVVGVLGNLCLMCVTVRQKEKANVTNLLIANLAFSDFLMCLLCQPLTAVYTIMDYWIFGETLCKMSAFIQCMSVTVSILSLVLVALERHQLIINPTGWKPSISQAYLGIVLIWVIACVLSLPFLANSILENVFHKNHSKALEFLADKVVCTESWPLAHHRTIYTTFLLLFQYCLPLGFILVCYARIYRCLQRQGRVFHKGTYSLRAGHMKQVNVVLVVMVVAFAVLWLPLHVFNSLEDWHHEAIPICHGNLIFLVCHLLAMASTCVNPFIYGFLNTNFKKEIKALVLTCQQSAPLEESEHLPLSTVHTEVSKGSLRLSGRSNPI

| Structure (SMILES) | Ki [1, 5] [nM] | Ki ([1]; Table 8, DMSO stock, read-out: hY2R RLB Ki (nM) DMSO) [nM] | EC50 [2] [µM] | EC50 [3] [µM] | Sol6 (Solubility determination) [mg/mL] | Sol7 (Solubility determination) [mg/mL] | EC50 [4] [µM] |
| --- | --- | --- | --- | --- | --- | --- | --- |
| CC[C@H](C)[C@H](NC(=O)[C@H](CCC(=O)O)NC(=O)[C@H](CCC(=O)O)NC(=O)[C@@H]1CCCN1C(=O)[C@H](CO)NC(=O)[C@H](C)NC(=O)[C@H](CC(=O)O)NC(=O)[C@H](CCC(=O)O)NC(=O)[C@H](CCC(=O)O)NC(=O)[C@@H]1CCCN1C(=O)[C@H](CCCCNC(=O)CCCCCNC(=O)CC[C@H](NC(=O)CCCCCCCCCCCCCCCCC(=O)O)C(=O)O)NC(=O)[C@H](C)NC(=O)[C@@H]1CCCN1C(=O)[C@H](C)NC(=O)CC(C)C)C(=O)N[C@@H](CCC(N)=O)C(=O)N[C@@H](CCCNC(=N)N)C(=O)N[C@@H](Cc1ccc(O)cc1)C(=O)N[C@@H](Cc1ccc(O)cc1)C(=O)N[C@H](C(=O)N[C@@H](CO)C(=O)N[C@@H](CC(C)C)C(=O)N[C@@H](CCCNC(=N)N)C(=O)N[C@@H](Cc1c[nH]cn1)C(=O)N[C@@H](Cc1ccc(O)cc1)C(=O)N[C@@H](Cc1ccc(O)cc1)C(=O)N[C@@H](CC(N)=O)C(=O)N[C@@H](Cc1c[nH]c2ccccc12)C(=O)N[C@@H](CC(C)C)C(=O)N[C@H](C(=O)N[C@@H](CCCNC(=N)N)C(=O)N[C@@H](CCC(N)=O)C(=O)N[C@@H](CCCNC(=N)N)C(=O)N[C@@H](Cc1ccc(O)cc1)C(N)=O)[C@@H](C)O)C(C)C [Compound 63, N{alpha-4}-(3-methylbutanoyl)-N{epsilon-7}-(6-[(4S)-4-carboxy-4-(17-carboxyheptadecanamido)butanamido]hexanoyl)-[4A,6A,7K,9E,17I,18Q,22V,28Y,30W,31L]-hPYY(4-36)] | 0.93 | 6.6 | > 5 | > 5 | 10.0 | >10.0 | > 5 |
| CC[C@H](C)[C@H](NC(=O)[C@H](CCC(=O)O)NC(=O)[C@H](CCC(=O)O)NC(=O)[C@@H]1CCCN1C(=O)[C@@H](NC(=O)[C@H](C)NC(=O)[C@H](CC(=O)O)NC(=O)[C@H](CCC(=O)O)NC(=O)[C@H](CCC(=O)O)NC(=O)[C@@H]1CCCN1C(=O)[C@H](CCCCNC(=O)CCCCCNC(=O)CC[C@H](NC(=O)CCCCCCCCCCCCCCCCC(=O)O)C(=O)O)NC(=O)[C@H](C)NC(=O)[C@@H]1CCCN1C(=O)[C@H](C)NC(=O)CC(C)C)[C@@H](C)O)C(=O)N[C@@H](CCC(N)=O)C(=O)N[C@@H](CCCNC(=N)N)C(=O)N[C@@H](Cc1ccc(O)cc1)C(=O)N[C@@H](Cc1ccc(O)cc1)C(=O)N[C@H](C(=O)N[C@@H](CO)C(=O)N[C@@H](CC(C)C)C(=O)N[C@@H](CCCNC(=N)N)C(=O)N[C@@H](Cc1c[nH]cn1)C(=O)N[C@@H](Cc1ccc(O)cc1)C(=O)N[C@@H](Cc1ccc(O)cc1)C(=O)N[C@@H](CC(N)=O)C(=O)N[C@@H](Cc1c[nH]c2ccccc12)C(=O)N[C@@H](CC(C)C)C(=O)N[C@H](C(=O)N[C@@H](CCCNC(=N)N)C(=O)N[C@@H](CCC(N)=O)C(=O)N[C@@H](CCCNC(=N)N)C(=O)N[C@@H](Cc1ccc(O)cc1)C(N)=O)[C@@H](C)O)C(C)C [Compound 114, N{alpha-4}-(3-methylbutanoyl)-N{epsilon-7}-(6-[(4S)-4-carboxy-4-(17-carboxyheptadecanamido)butanamido]hexanoyl)-[4A,6A,7K,9E,13T,17I,18Q,22V,28Y,30W,31L]-hPYY(4-36)] | 0.95 | – | > 5 | > 5 | 8.5 | 9.2 | > 5 |
| CC[C@H](C)[C@H](NC(=O)[C@H](CCC(=O)O)NC(=O)[C@H](CCC(=O)O)NC(=O)[C@@H]1CCCN1C(=O)[C@H](CCC(=O)O)NC(=O)[C@H](C)NC(=O)[C@H](CC(=O)O)NC(=O)[C@H](CCC(=O)O)NC(=O)[C@@H]1CCCN1C(=O)[C@@H]1CCCN1C(=O)[C@H](CCCCNC(=O)CCCCCNC(=O)CC[C@H](NC(=O)CCCCCCCCCCCCCCCCC(=O)O)C(=O)O)NC(=O)[C@H](CCC(=O)O)NC(=O)[C@@H]1CCCN1C(=O)[C@H](C)NC(=O)CC(C)C)C(=O)N[C@@H](CCC(N)=O)C(=O)N[C@@H](CCCNC(=N)N)C(=O)N[C@@H](Cc1ccc(O)cc1)C(=O)N[C@@H](Cc1ccc(O)cc1)C(=O)N[C@H](C(=O)N[C@@H](CO)C(=O)N[C@@H](CC(C)C)C(=O)N[C@@H](CCCNC(=N)N)C(=O)N[C@@H](Cc1c[nH]cn1)C(=O)N[C@@H](Cc1ccc(O)cc1)C(=O)N[C@@H](Cc1ccc(O)cc1)C(=O)N[C@@H](CC(N)=O)C(=O)N[C@@H](Cc1c[nH]c2ccccc12)C(=O)N[C@@H](CC(C)C)C(=O)N[C@H](C(=O)N[C@@H](CCCNC(=N)N)C(=O)N[C@@H](CCC(N)=O)C(=O)N[C@@H](CCCNC(=N)N)C(=O)N[C@@H](Cc1ccc(O)cc1)C(N)=O)[C@@H](C)O)C(C)C [Compound 118, N{alpha-4}-(3-methylbutanoyl)-N{epsilon-7}-(6-[(4S)-4-carboxy-4-(17-carboxyheptadecanamido)butanamido]hexanoyl)-[4A,7K,9P,13E,17I,18Q,22V,28Y,30W,31L]-hPYY(4-36)] | 1 | – | > 5 | > 5 | 10.0 | 9.5 | > 5 |
| CC(C)CC(=O)N[C@@H](C)C(=O)N1CCC[C@H]1C(=O)N[C@@H](CCC(=O)O)C(=O)N[C@@H](CCCCNC(=O)CCCCCNC(=O)CC[C@H](NC(=O)CCCCCCCCCCCCCCCCC(=O)O)C(=O)O)C(=O)N1CCC[C@H]1C(=O)N[C@@H](CCC(=O)O)C(=O)N[C@@H](CCC(=O)O)C(=O)N[C@@H](C)C(=O)N[C@@H](C)C(=O)N[C@H](C(=O)N1CCC[C@H]1C(=O)N[C@@H](CCC(=O)O)C(=O)N[C@@H](CCC(=O)O)C(=O)N[C@@H](CC(C)C)C(=O)N[C@@H](CCC(N)=O)C(=O)N[C@@H](CCCNC(=N)N)C(=O)N[C@@H](Cc1ccc(O)cc1)C(=O)N[C@@H](Cc1ccc(O)cc1)C(=O)N[C@H](C(=O)N[C@@H](CO)C(=O)N[C@@H](CC(C)C)C(=O)N[C@@H](CCCNC(=N)N)C(=O)N[C@@H](Cc1c[nH]cn1)C(=O)N[C@@H](Cc1ccc(O)cc1)C(=O)N[C@@H](Cc1ccc(O)cc1)C(=O)N[C@@H](CC(N)=O)C(=O)N[C@@H](Cc1c[nH]c2ccccc12)C(=O)N[C@@H](CC(C)C)C(=O)N[C@H](C(=O)N[C@@H](CCCNC(=N)N)C(=O)N[C@@H](CCC(N)=O)C(=O)N[C@@H](CCCNC(=N)N)C(=O)N[C@@H](Cc1ccc(O)cc1)C(N)=O)[C@@H](C)O)C(C)C)[C@@H](C)O [Compound 128, N{alpha-4}-(3-methylbutanoyl)-N{epsilon-7}-(6-[(4S)-4-carboxy-4-(17-carboxyheptadecanamido)butanamido]hexanoyl)-[4A,7K,9E,11A,13T,18Q,22V,28Y,30W,31L]-hPYY(4-36)] | 2.91 | – | > 5 | > 5 | 10.0 | >10.0 | > 5 |
